Experimental findings from patent US20230167058A1, “GPX4 COMPOUNDS AND COMPOSITIONS AND METHODS OF TREATMENT USING SAME” (THE TRUSTEES OF COLUMBIA UNIVERSITY IN THE CITY OF NEW YORK, priority 2020, published 2023) are described below.

Assay [1] addresses T1, cellular GPX4 in HT1080 cell lysate (Homo sapiens, UniProt P36969).
T1 construct: endogenous in cells; host or cells: HT-1080 (ATCC), whole-cell lysate
T1 sequence (P36969 1-197): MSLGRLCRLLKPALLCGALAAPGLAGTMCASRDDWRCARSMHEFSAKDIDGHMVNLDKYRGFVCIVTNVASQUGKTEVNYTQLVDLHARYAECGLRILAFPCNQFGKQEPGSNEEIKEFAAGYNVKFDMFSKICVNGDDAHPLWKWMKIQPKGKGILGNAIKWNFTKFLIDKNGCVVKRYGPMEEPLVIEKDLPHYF
Nature of the assay: NADPH-coupled cellular GPX4-specific activity, HT1080 cell lysate. The class given is biochemical. The settings on record: 500 μM LOC1886 added to lysate. On the procedure:
We applied a NADPH-coupled cellular GPX4 enzymatic activity assay as previously reported with minor modifications (Roveri et al. 1994). Oxidized glutathione, generated by GPX4 during reducing its specific phospholipid hydroperoxides substrate, was reduced by Glutathione Reductase at the expense of NADPH, the decrease in the characteristic absorbance of which at 340 nm was monitored and quantified as GPX4 activity. […] The concentration of protein in the lysate was determined using BCA assay kit using BSA as standards. […] Absorbance of NADPH at 340 nm was determined kinetically at 1 min interval over the 20 min time. […] Results were quantified using GraphPad Prism 9.
We applied a NADPH-coupled cellular GPX4 enzymatic activity assay as previously reported (Roveri et al. 1994). Oxidized glutathione, generated by GPX4 during reducing its specific phospholipid hydroperoxides substrate, was reduced by Glutathione Reductase at the expense of NADPH, the decrease in the characteristic absorbance of which at 340 nm was monitored and quantified as GPX4 activity. […] The concentration of protein in the lysate was determined using BCA assay kit using BSA as standards. […]

Another assay concerns HT1080 cells. Nature of the assay: Single-point ferroptosis test, cellular viability (CellTiter-Glo). The class given is cell-based, human. The settings on record: 125 μM LOC1886, 48 h. As to the method: 1000 cells of each HT-1080 or G401 cell line were plated 36 μL per well of a 384-well plate on day 1. The remaining cells were immediately tested for Western Blot (to monitor GPX4 protein overexpression level). For dose response curves, compounds were dissolved in DMSO and a 12-point, twofold dilution series was prepared. The compounds were then diluted 1:50 in media and 4 μL was added to each well of the plates on day 2. Final concentrations of the compounds on the 384-well plate started from 2 μM for RSL3/ML162 and 20 μM for IKE/FIN56/FINO2. For single-point ferroptosis test, HT1080 cells were treated either with 12.5 μM RSL3 or 125 μM LOC1886, with or without supplementation of 2 μM Fer-1. After 48 h of treatment, the viability of cells was measured using 1:1 dilution of the CellTiter-Glo luminescent reagent (Promega G7573) with media, which was read on a Victor 5 plate reader after 10 min of shaking at room temperature on day 4. The intensity of luminescence was normalized to that of DMSO control. Results were quantified using GraphPad Prism 9. Based on the dose-response curve of viability, area under curves were calculated and reported in bar graph formats with standard errors using GraphPad Prism 9.

Consider `COc1cccc2[nH]c(C(=O)n3ccnc3)cc12` [LOC1886], for which the “capability of cellular GPX4 to reduce phospholipid hydroperoxides” value in assay [1] is listed as “inhibited the capability of cellular GPX4”. Further, the induction of ferroptosis entry in the assay with HT1080 cells is on record as “able to induce ferroptosis to HT1080 cells”.
